In general, melting point refers to the temperature, or range, at which the solid turns liquid. In turn, `Cc1ccc(-c2ccccc2)cc1Cn1c(C2CC2)nn(C)c1=O` [Compound 538, 5-cyclopropyl-2-methyl-4-(2-methyl-5-phenylbenzyl)-2,4-dihydro-3H-1,2,4-triazol-3-one] yielded a melting point of 102.4 °C.
The same measure for `CSc1nn(C)c(=O)n1Cc1cc(-c2ccccc2)ccc1C` [Compound 8, 5-methylthio-2-methyl-4-(2-methyl-5-phenylbenzyl)-2,4-dihydro-3H-1,2,4-triazol-3-one]: 95.6 °C; for `Cc1ccc(-c2ccccc2)cc1Cn1c(C)nn(C)c1=O` [Compound 10, 2,5-dimethyl-4-(2-methyl-5-phenylbenzyl)-2,4-dihydro-3H-1,2,4-triazol-3-one]: 138.9 °C.
With `Cc1ccc(-c2ccccc2)cc1Cn1c(Cl)nn(C)c1=O` [Compound 7, 5-chloro-2-methyl-4-(2-methyl-5-phenylbenzyl)-2,4-dihydro-3H-1,2,4-triazol-3-one] the figure was 115.7 °C.
